Earlier results on one compound are cited in patent US10065956B2, “Ethynyl derivatives” (Hoffmann-La Roche Inc., priority 2015, dated 2018).

Molecules are shown by their SMILES.

Series [1] deals with mice. Conditions: reported by Addex 2010; cited from earlier work.
For the next series, the system named is rats. The settings on record: cited from earlier work.
Series [2] relates to mice. The settings on record: reported by Addex 2010; cited from earlier work. The source holds these as a separate data set.

In the case of `Cc1ccnc(Nc2nc(-c3cn[nH]c3)c(C)s2)n1` [ADX88178], the “activity in marble burying test” value in the series on mice [1] is given as “active”. Further, the “profile in the rat EPM test” value with rats (rat, after oral dosing) is “anxiolytic-like profile”. For the same compound, the “activity in EPM” value in the series with rats (rats, reported by Addex 2010) was “active”; in the series with mice [2], “active”.
